Biological target: T1, TDO2 (Homo sapiens, UniProt P48775)
T1 construct: decreased levels of NFK in SW48 cells (high TDO expressing cells)
Test: TDO2 cell assay (NFK GreenScreen, SW48 cells)
Assay type: cell-based
Conditions: SW48 cells (high TDO expressing), 200 uM tryptophan, 24 hours; Table 3; read-out: TDO2 Cell Fluor EC50

T1 sequence (P48775 whole entry): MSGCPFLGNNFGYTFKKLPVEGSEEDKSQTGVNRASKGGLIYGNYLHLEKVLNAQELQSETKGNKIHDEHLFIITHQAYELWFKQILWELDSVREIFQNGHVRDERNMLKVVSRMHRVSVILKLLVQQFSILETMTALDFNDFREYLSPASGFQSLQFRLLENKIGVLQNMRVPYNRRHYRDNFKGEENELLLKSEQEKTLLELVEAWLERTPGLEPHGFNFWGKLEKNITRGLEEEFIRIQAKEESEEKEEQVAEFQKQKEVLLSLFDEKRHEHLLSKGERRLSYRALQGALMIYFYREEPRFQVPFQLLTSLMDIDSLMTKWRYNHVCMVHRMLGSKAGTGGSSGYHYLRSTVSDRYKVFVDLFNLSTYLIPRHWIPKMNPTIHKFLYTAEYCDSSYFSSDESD

EC50 | Structure (SMILES)
200 nM | NS(=O)(=O)N1CCC2(CC1)CC(C1c3ccccc3-c3cncn31)C2O (single isomer, unassigned) [Example 181f]
930 nM | NS(=O)(=O)N1CCC2(CC1)CC(C1c3ccccc3-c3cncn31)C2O (single isomer, unassigned) [Example 181g]
11000 nM | NS(=O)(=O)N1CCC2(CC1)CC(C1c3ccccc3-c3cncn31)C2O (single isomer, unassigned) [Example 181h]
> 25000 nM | NS(=O)(=O)N1CCC2(CCC(C3c4ccccc4-c4cncn43)C2O)CC1 (single isomer, unassigned) [Example 182a]
540 nM | NS(=O)(=O)N1CCC2(CCC(C3c4ccccc4-c4cncn43)C2O)CC1 (single isomer, unassigned) [Example 182b]
4600 nM | NS(=O)(=O)N1CCC2(CCC(C3c4ccccc4-c4cncn43)C2O)CC1 (single isomer, unassigned) [Example 182c]
92 nM | NS(=O)(=O)N1CCC2(CCC(C3c4ccccc4-c4cncn43)C2O)CC1 (single isomer, unassigned) [Example 182d]
430 nM | OC1c2cncn2CC[C@H]1[C@H]1c2ccccc2-c2cncn21 (stereo in doubt) [Example 07c, (7S,8R)-7-((S)-5H-imidazo[5,1-a]isoindol-5-yl)-5,6,7,8-tetrahydroimidazo[1,5-a]pyridin-8-ol]
> 25000 nM | OC1c2cncn2CC[C@@H]1[C@@H]1c2ccccc2-c2cncn21 (stereo in doubt) [Example 07d, (7R,8S)-7-((R)-5H-imidazo[5,1-a]isoindol-5-yl)-5,6,7,8-tetrahydroimidazo[1,5-a]pyridin-8-ol]
> 25000 nM | CCS(=O)(=O)N1CC[C@H]([C@H]2c3ccccc3-c3cncn32)[C@@H](O)C1 (stereo in doubt) [Example 16d, (3R,4R)-1-(ethylsulfonyl)-4-((S)-5H-imidazo[5,1-a]isoindol-5-yl)piperidin-3-ol]
2400 nM | NC(=O)c1ccc2c(c1)CC[C@H](C1c3ccccc3-c3cncn31)[C@H]2O (stereo in doubt) [Example 60c, (5R,6R)-5-hydroxy-6-((S)-5H-imidazo[5,1-a]isoindol-5-yl)-5,6,7,8-tetrahydronaphthalene-2-carboxamide]
12000 nM | N#Cc1ccc2c(c1)[C@@H](O)[C@@H]([C@H]1c3ccccc3-c3cncn31)CC2 (stereo in doubt) [Example 113d, (7R,8S)-8-hydroxy-7-((S)-5H-imidazo[5,1-a]isoindol-5-yl)-5,6,7,8-tetrahydronaphthalene-2-carbonitrile]
1300 nM | N#Cc1ccc2c(c1)[C@H](O)[C@H]([C@@H]1c3ccccc3-c3cncn31)CC2 (stereo in doubt) [Example 113e, (7S,8R)-8-hydroxy-7-((R)-5H-imidazo[5,1-a]isoindol-5-yl)-5,6,7,8-tetrahydronaphthalene-2-carbonitrile]
360 nM | OC1c2cccn2CC[C@H]1C1c2ccccc2-c2cncn21 (stereo in doubt) [Example 136f, (7S,8S)-7-((R)-5H-imidazo[5,1-a]isoindol-5-yl)-5,6,7,8-tetrahydroindolizin-8-ol]
14000 nM | O[C@@H]1CC[C@@H]1[C@@H]1c2ccccc2-c2cncn21 [Example 01a, (1R,2R)-2-((R)-5H-imidazo[5,1-a]isoindol-5-yl)cyclobutan-1-ol]
150 nM | O[C@H]1CC[C@H]1[C@H]1c2ccccc2-c2cncn21 [Example 01b, (1S,2S)-2-((S)-5H-imidazo[5,1-a]isoindol-5-yl)cyclobutan-1-ol]
> 25000 nM | O[C@H]1CC[C@@H]1[C@@H]1c2ccccc2-c2cncn21 [Example 01c, (1S,2R)-2-((R)-5H-imidazo[5,1-a]isoindol-5-yl)cyclobutan-1-ol]
1100 nM | O[C@H]1CC[C@@H]1[C@H]1c2ccccc2-c2cncn21 [Example 01e, (1S,2R)-2-((S)-5H-imidazo[5,1-a]isoindol-5-yl)cyclobutan-1-ol]
12000 nM | O[C@@H]1CCC[C@@H]1[C@@H]1c2ccccc2-c2cncn21 [Example 02a, (1R,2R)-2-((R)-5H-imidazo[5,1-a]isoindol-5-yl)cyclopentan-1-ol]
120 nM | O[C@H]1CCC[C@H]1[C@H]1c2ccccc2-c2cncn21 [Example 02b, (1S,2S)-2-((S)-5H-imidazo[5,1-a]isoindol-5-yl)cyclopentan-1-ol]
300 nM | O[C@@H]1CCC[C@@H]1[C@H]1c2ccccc2-c2cncn21 [Example 02c, (1R,2R)-2-((S)-5H-imidazo[5,1-a]isoindol-5-yl)cyclopentan-1-ol]
14000 nM | O[C@H]1CCC[C@H]1[C@@H]1c2ccccc2-c2cncn21 [Example 02d, (1S,2S)-2-((R)-5H-imidazo[5,1-a]isoindol-5-yl)cyclopentan-1-ol]
77 nM | O[C@H]1CCCC[C@H]1[C@H]1c2ccccc2-c2cncn21 [Example 03a, (1S,2S)-2-((S)-5H-imidazo[5,1-a]isoindol-5-yl)cyclohexan-1-ol]

EC50 | Structure (SMILES)
83 nM | O[C@@H]1CCCC[C@H]1[C@H]1c2ccccc2-c2cncn21 [Example 03b, (1R,2S)-2-((S)-5H-imidazo[5,1-a]isoindol-5-yl)cyclohexan-1-ol]
7600 nM | O[C@H]1CCCC[C@@H]1[C@@H]1c2ccccc2-c2cncn21 [Example 03g, (1S,2R)-2-((R)-5H-imidazo[5,1-a]isoindol-5-yl)cyclohexan-1-ol]
13000 nM | O[C@@H]1CCCC[C@@H]1[C@@H]1c2ccccc2-c2cncn21 [Example 03h, (1R,2R)-2-((R)-5H-imidazo[5,1-a]isoindol-5-yl)cyclohexan-1-ol]
23000 nM | O[C@H]1CCOC[C@@H]1[C@@H]1c2ccccc2-c2cncn21 [Example 05a, (3S,4S)-3-((R)-5H-imidazo[5,1-a]isoindol-5-yl)-tetrahydro-2H-pyran-4-ol]
210 nM | O[C@@H]1CCOC[C@H]1[C@H]1c2ccccc2-c2cncn21 [Example 05b, (3R,4R)-3-((S)-5H-imidazo[5,1-a]isoindol-5-yl)-tetrahydro-2H-pyran-4-ol]
> 25000 nM | O[C@@H]1CCOC[C@H]1[C@@H]1c2ccccc2-c2cncn21 [Example 05c, (3R,4R)-3-((R)-5H-imidazo[5,1-a]isoindol-5-yl)-tetrahydro-2H-pyran-4-ol]
1000 nM | O[C@H]1CCOC[C@@H]1[C@H]1c2ccccc2-c2cncn21 [Example 05d, (3S,4S)-3-((S)-5H-imidazo[5,1-a]isoindol-5-yl)-tetrahydro-2H-pyran-4-ol]
> 25000 nM | O[C@@H]1COCC[C@@H]1[C@@H]1c2ccccc2-c2cncn21 [Example 06e, (3S,4R)-4-((R)-5H-imidazo[5,1-a]isoindol-5-yl)tetrahydro-2H-pyran-3-ol]
900 nM | O[C@H]1COCC[C@H]1[C@H]1c2ccccc2-c2cncn21 [Example 06f, (3R,4S)-4-((S)-5H-imidazo[5,1-a]isoindol-5-yl)tetrahydro-2H-pyran-3-ol]
> 25000 nM | O[C@H]1c2cncn2CC[C@@H]1[C@@H]1c2ccccc2-c2cncn21 [Example 07g, (7R,8R)-7-((R)-5H-imidazo[5,1-a]isoindol-5-yl)-5,6,7,8-tetrahydroimidazo[1,5-a]pyridin-8-ol]
48 nM | O[C@@H]1c2ccncc2CC[C@H]1[C@H]1c2ccccc2-c2cncn21 [Example 08a, (5S,6S)-6-((S)-5H-imidazo[5,1-a]isoindol-5-yl)-5,6,7,8-tetrahydroisoquinolin-5-ol]
15000 nM | CC(C)(C)OC(=O)N1CC[C@@H](O)[C@H]([C@H]2c3ccccc3-c3cncn32)C1 [Example 11a, (3S,4R)-tert-butyl 4-hydroxy-3-((S)-5H-imidazo[5,1-a]isoindol-5-yl)piperidine-1-carboxylate]
> 25000 nM | CC(C)(C)OC(=O)N1CC[C@H](O)[C@@H]([C@@H]2c3ccccc3-c3cncn32)C1 [Example 11b, (3R,4S)-tert-butyl 4-hydroxy-3-((R)-5H-imidazo[5,1-a]isoindol-5-yl)piperidine-1-carboxylate]
> 25000 nM | CCS(=O)(=O)N1CC[C@H]([C@@H]2c3ccccc3-c3cncn32)[C@@H](O)C1 [Example 16b, (3R,4R)-1-(ethylsulfonyl)-4-((R)-5H-imidazo[5,1-a]isoindol-5-yl)piperidin-3-ol]
5700 nM | CCS(=O)(=O)N1CC[C@H]([C@H]2c3ccccc3-c3cncn32)[C@@H](O)C1 [Example 16c, (3R,4R)-1-(ethylsulfonyl)-4-((S)-5H-imidazo[5,1-a]isoindol-5-yl)piperidin-3-ol]
65 nM | O[C@H]1CCC(F)(F)C[C@H]1[C@H]1c2ccccc2-c2cncn21 [Example 18a, (1S,2S)-4,4-difluoro-2-((S)-5H-imidazo[5,1-a]isoindol-5-yl)cyclohexan-1-ol]
7500 nM | O[C@@H]1CCC(F)(F)C[C@@H]1[C@@H]1c2ccccc2-c2cncn21 [Example 18e, (1R,2R)-4,4-difluoro-2-((R)-5H-imidazo[5,1-a]isoindol-5-yl)cyclohexan-1-ol]
60 nM | CC1(C)C[C@H](O)[C@@H]1[C@H]1c2ccccc2-c2cncn21 [Example 22a, (1S,2S)-2-((S)-5H-imidazo[5,1-a]isoindol-5-yl)-3,3-dimethylcyclobutan-1-ol]
> 25000 nM | CC1(C)C[C@H](O)[C@H]1[C@@H]1c2ccccc2-c2cncn21 [Example 22c, (1S,2R)-2-((R)-5H-imidazo[5,1-a]isoindol-5-yl)-3,3-dimethylcyclobutan-1-ol]
3500 nM | CC1(C)C[C@@H](O)[C@H]1[C@@H]1c2ccccc2-c2cncn21 [Example 22e, (1R,2R)-2-((R)-5H-imidazo[5,1-a]isoindol-5-yl)-3,3-dimethylcyclobutan-1-ol]
> 25000 nM | N#CCN1CC[C@H]([C@H]2c3ccccc3-c3cncn32)[C@@H](O)C1 [Example 27c, 2-((3R,4R)-3-hydroxy-4-((S)-5H-imidazo[5,1-a]isoindol-5-yl)piperidin-1-yl)acetonitrile]
> 25000 nM | O[C@@H]1c2cccnc2CC[C@@H]1[C@@H]1c2ccccc2-c2cncn21 [Example 31a, (5S,6R)-6-((R)-5H-imidazo[5,1-a]isoindol-5-yl)-5,6,7,8-tetrahydroquinolin-5-ol]
